Values after ≈ are worked out from the molar mass of the structure shown. Read-outs that look alike come from different tables or passages of the source.
Tests used:
P. digitatum [1] = experiment: Mode of action test (fungicidal or fungistatic) by transfer of the mycelial disc to plain PDA; type: cell-based, Penicillium digitatum; conditions: growth monitored 5 days after transfer to plain PDA
Text: A further test was made (in vitro) to investigate whether the mode of action was fungicidal or fungistatic; the mycelial disc of inoculum from the assay plate was transferred to a plate containing just PDA. Plates were then monitored for growth over the next 5 days. If growth resumed, the compound was classified fungistatic, and if growth was not resumed it was classified as fungicidal.

P. digitatum [2] = experiment: Minimum inhibitory concentration in PDA Petri dishes (mycelial disc); type: cell-based, Penicillium digitatum; conditions: 24° C., hyphal growth after 7 days
Procedure: The minimum inhibitory concentration (MIC) of over 50 compounds that were found in the oil glands of citrus fruits was evaluated (in vitro) by establishing the lowest concentration of the compound where no growth of the pathogen occurred (in vitro) in Petri dishes. Table 5 gives the MIC of the more promising compounds (as compared to imazalil). The requisite amount of each of the compounds to be tested, dissolved in 0.5 ml acetone, was added to a sterile Petri dish (90 mm) containing 15 ml of molten potato dextrose agar (PDA) (50° C.) to give a final concentration of 1 mg ml^−1. The dish was gently agitated to ensure an even distribution of the test compound and the agar was then left to set. The dishes were inoculated using a mycelial disc (8 mm) cut from an agar plate culture of P. digitatum which had not yet begun sporulation. The mycelial discs were placed in the center of each test dish and then put at 24° C. Fungal inhibition was monitored by measuring the diameter of hyphal growth after 7 days.

lemon fruit = experiment: Peel blemish index of lemon fruit after 1-minute dip in citral with antioxidant BHA; type: in vivo; conditions: BHA by itself
Text: The antioxidant reduces the oxidation rate of the essential oils leading to their decomposition. It further reduces the inherent phytotoxicity of the essential oil. The antioxidant may be chosen from the group comprising of compounds such as but not limited to: butylated hydroxyanisole (BHA), ascorbic acid, isoascorbic acid, α-tocopherol, butylated hydroxytoluene (BHT), β-carotene or their mixtures. Preferred concentrations of the antioxidant in the formulation of the invention are in the range of from about 0.05% to about 0.8% (w/v).
The peel blemish index is determined by
(§1) The blemish score is 0 =no blemishes; 1=light blemishes; 2=moderate blemishes; and 3=severe blemishes.

Penicillium = experiment: Decay of lemons inoculated as in Example 2 and treated with citral emulsions; type: in vivo, Penicillium digitatum on lemons
Procedure: Unblemished grapefruit were harvested from the orchard and on the same day sorted again in the laboratory to eliminate injured fruit. The grapefruit were washed with tap water and air-dried. Each fruit was then inoculated by piercing its flavedo tissue 1.5 mm deep with a tool incorporating three needles at three different sites. Prior to each piercing, the tool was immersed in a spore suspension of Penicillium digitatum (10^6 spores/ml). The inoculated grapefruit were kept at 17° C. and 85% relative humidity for 24 hours after which the grapefruit were divided into six groups and grapefruit from each group were treated by dipping for two minutes in: (a) water; (b) 25% Ethanol (EtOH); (c) 0.2% Geraniol in 25% EtOH; (d) 0.1% Citral in 25% EtOH, (e) 0.2% Citral in 25% EtOH and (f) 0.5% Citral in 25% EtOH.
Lemons were inoculated as shown in Example 2 and treated with and without 25% of ethanol to check whether the 5000 ppm of the emulsifier Tween 20 could stabilize the antifungal activity of citral. […] Probably the emulsifier enables the formation of a microcolloidal stable emulsion, which prevents the phytotxicity by allowing uniform dispersion of citral, which is phytotoxic by itself in these concentrations. Thus, Tween 20 combined with the antioxidant BHA could substitute for the ethanol in the formulation.
Lemons inoculated with Penicillium as shown in Example 2 were dipped for 2 minutes in an aqueous solution comprising citral, emulsifier (Triton X100) and BHA at various concentrations. The concentration of Citral is 1.0%. The control solution was comprised of 0.5% Triton X100.
Lemons inoculated with Penicillium as shown in Example 2 were treated with an aqueous solution comprising 0.5% Citral, 0.3% BHA, Tween 20 and imazalil and stored at 20° C. for a period of 21 days.

Alternaria citri = experiment: In vitro agar diffusion assay; type: cell-based; conditions: Five mg on paper disc; Total inhibition is the maximal inhibition, 62.3 cm^2
Penicillium italicum = experiment: In vitro agar diffusion assay; type: cell-based; conditions: Five mg on paper disc; Total inhibition is the maximal inhibition, 62.3 cm^2
Geotrichum Candidum = experiment: In vitro agar diffusion assay; type: cell-based; conditions: Five mg on paper disc; Total inhibition is the maximal inhibition, 62.3 cm^2
lemons = experiment: Induction of phytoalexins (scoparone, scopoletin) in lemons; type: in vivo, lemon; conditions: injection into the albedo tissue of lemons
Procedure: Treating uninoculated lemons by injecting 5 μl photo-oxidized limonene into the albedo tissue, just below the flavedo, elicited in these lemons the production of scoparone and scopoletin up to levels adequate to protect the fruit from the pathogen. […] Such injury of yellow fruit gave much lower response showing that the maturity of fruit affects this resistance response and older fruit is less protected (FIG. 2). […] Furthermore much higher levels of both scoparone (over 1000 μg/g fresh weight) and of scopoletin (over 200 μg/g fresh weight) were found after dipping inoculated fruit in the crude dichloromethane extract that prevented decay (FIG. 7). The phytoalexins level found was several fold of the amount required to control completely the pathogens. Thus apparently, the formed limonene hydroperoxides form reactive oxygen species, which elicit the immune system of the plant. Such reactive oxygen species effect the pathogen as well. These reactive oxygen species have a short life and decompose well before the fruit is distributed to the market.

P. digitatum [3] = experiment: Control of fungal growth (other experiments, data not shown); type: cell-based, Penicillium digitatum
[4] = system: wild type Candida albicans; experiment: Growth of Candida albicans cells in culture broth (OD 600 nm); type: cell-based
Procedure: Cells of wild type Candida albicans (1×10^3) were grown on culture broth at 37° C. with different concentration of extracts 50-100 μl. OD was determined at 600 nm. The following treatments in 6 different tubes were given: […] TUBE 2. 2000 ppm Citral+25% Ethanol+2000 ppm Tween-20+300 ppm BHA. […] TUBE 6. 25% ethanol+2000 ppm Tween-20+500 ppm β-CD+300 ppm BHA.

Penicillium digitatum [5] = experiment: Decay of Penicillium-inoculated grapefruit after 2-minute dip; type: in vivo, Penicillium digitatum on grapefruit
Text: Unblemished grapefruit were harvested from the orchard and on the same day sorted again in the laboratory to eliminate injured fruit. The grapefruit were washed with tap water and air-dried. Each fruit was then inoculated by piercing its flavedo tissue 1.5 mm deep with a tool incorporating three needles at three different sites. Prior to each piercing, the tool was immersed in a spore suspension of Penicillium digitatum (10^6 spores/ml).

[6] = system: microbial population in meat cuts of beef; experiment: Total count of microbial population in beef meat cuts after dip; conditions: 30 seconds dip in 0.2% Citral dissolved in 20% ethanol; 2 weeks at 1° C.
Procedure: The meat cuts were then stored in 1° C. and 85% relative humidity and a total count of the microbial population in each meat cut was carried out 2 weeks after treatment.

Cladosporium herbarum = experiment: Inhibition of Cladosporium herbarum growing on inoculated corn cob; type: in vivo; conditions: dissolved in 25% ethanol
Erwinia carotovora = experiment: Control of bacterial growth (other experiments, data not shown); type: cell-based
[7] = system: non-inoculated Washington oranges; experiment: Decay percentage of non-inoculated Washington oranges during storage; type: in vivo, Washington navel oranges
Procedure: Non-inoculated Washington navel oranges were divided into […] groups which were treated as follows: (a) no treatment; (b) dipped in 50% Ethanol; (c) dipped in 0.2% Citral in 0.02% L-77 Emulsifier (aqueous emulsion); (d) dipped in 0.2% Citral in 50% Ethanol; and (e) dipped in a 0.2% aqueous Imazalil solution.
Oranges were then stored for four months at 15° C. in 50-75% relative humidity and the percentage of rotten fruit in each group was measured at different time periods after storage.

Penicillium digitatum [8] = experiment: Decay of lemons inoculated with Penicillium 10^4 spores/ml and dipped; type: in vivo, Penicillium digitatum on lemons; conditions: limonene or peel extract not irradiated or exposed to sunlight
Procedure: Lemon fruit flavedo (exocarp) was taken and extracted overnight in dichloromethane, then exposed to sunlight for about 18 hours until the color of the dichloromethane extract turned brown. The flavedo was blended and filtered through a layer of Whatman paper. The extracted solution was evaporated to remove the dichloromethane and the dense liquor was further separated by chromatography with a silica 60 column using dichloromethane as a carrier. Two fractions of dichloromethane, one green and the other colorless, were obtained after chromatography. The crude active extract was isolated by evaporation of the green dichloromethane fraction. […] Effect of the compounds on pathogen development on the fruit was checked daily during storage.
The antifungal activity of the products prepared in the two different routes was checked in the same method. […] Decay was evaluated at specific intervals during a period of 26 days.
Lemons inoculated with Penicillium (10^4 spores/ml) were dipped in an aqueous solution comprising citral, a detergent (Tween 20), other essential oil components as well as a dichloromethane crude extract of lemon flavedo exposed to sunlight. Decay was evaluated at specific intervals during a period of 20 days.
Pure limonene was exposed to sunlight for three hours. […]

fruit = experiment: Phytotoxicity of citral solutions comprising emulsifiers (1-minute fruit dip); conditions: in vivo
Text: as §1

[9] = Penicillium digitatum, 168 h, read-out: MIC

Compound | Mode of action (P. digitatum [1]) | MIC (P. digitatum [2]; [9]) [µg/mL] | GROWTH INHIBITION AREA OF THE PATHOGEN (Alternaria citri) | GROWTH INHIBITION AREA OF THE PATHOGEN (Penicillium italicum) | GROWTH INHIBITION AREA OF THE PATHOGEN (Geotrichum Candidum) | other results
C=C(C)C1CC=C(C)C(O)C1 (mixture of isomers) [Carveol] | Fungistatic | 1000 |  |  |  | 
COc1ccc(O)c(C(C)(C)C)c1 [BHA, butylated hydroxyanisole] |  |  |  |  |  | Peel blemish (lemon fruit): did not cause any blemish; activity of citral in preventing the development of the pathogen (Penicillium; 0.1% BHA with 1.0% citral and Triton X100, 2 minutes dip): enhancing the activity of citral
O=CC=Cc1ccccc1 [Cinnamaldehyde] | Fungicidal | 400 (≈ 3030 µM) | Total inhibition | Total inhibition | 24.2 cm^2 | 
CC(C)=CCCC(C)=CC=O [Citral, 3,7-dimethyl-2,6-octadienal] | Fungicidal | 400 (≈ 2630 µM) | Total inhibition | Total inhibition | 10.6 cm^2 | elicitation of phytoalexin (scoparone, scopoletin) production (lemons): did not elicit the same protective response; controlling growth of the fungi (P. digitatum [3]): effective in controlling growth; cell growth ([4]; 2000 ppm Citral in 25% ethanol and 2000 ppm Tween 20): completely inhibited cell growth; cell growth ([4]; 2000 ppm Citral, 25% ethanol, 2000 ppm Tween 20 together with β-CD 500 ppm, 300 ppm BHA): completely inhibited cell growth; decay control (Penicillium; 0.5% citral added to 1 ppm imazalil, 0.3% BHA, Tween 20, 20° C., 21 days): did not control decay adequately; decay control (Penicillium; 0.5% citral added to 10 ppm imazalil, 0.3% BHA, Tween 20, 20° C., 21 days): prevented decay completely; fruit showing decay (Penicillium digitatum [5]; 0.2% Citral dissolved in 25% EtOH, 28 days after inoculation): 20%; decay of fruit (Penicillium digitatum [5]; 0.2% Citral dissolved in 25% EtOH, until 18 days after inoculation): completely inhibited decay; decay of fruit (Penicillium digitatum [5]; 0.5% Citral in 25% EtOH, ascribed to phytotoxicity): enhanced decay; total counts of microbial population, relative to the non-treated meat cuts [6]: less than 10%; inhibition of the pathogen (Cladosporium herbarum): marked inhibition; controlling growth of the bacteria (Erwinia carotovora): effective in controlling growth
CC(C)=CCCC(C)CC=O (stereo not shown) [Citronellal] | Fungistatic | 600 (≈ 3890 µM) |  |  |  | 
CCCCCCCCCCO [Decanol] | Fungistatic | 50 (≈ 316 µM) | Total inhibition | Total inhibition | 0.95 cm^2 | 
C=CCOC(Cn1ccnc1)c1ccc(Cl)cc1Cl (stereo not shown) [Imazalil, reference compound] | Fungicidal | < 25 | 42.8 cm^2 | Total inhibition | 8.3 cm^2 | decay control (Penicillium; imazalil 1 and 10 ppm, stored at 20° C. for 21 days): insufficient to control completely decay; % of rotten fruit ([7]; 0.5 months of storage at 15° C.): 0%; % of rotten fruit ([7]; 1 month of storage at 15° C.): 2%; % of rotten fruit ([7]; 2 months of storage at 15° C.): 4%; % of rotten fruit ([7]; 3 months of storage at 15° C.): 5%; % of rotten fruit ([7]; 4 months of storage at 15° C.): 8%
CCCCCCCCCO [Nonanol] | Fungistatic | 200 (≈ 1390 µM) |  |  |  | 
CCCCCCCC=O [Octanal] |  |  | 5.3 cm^2 | 2.6 cm^2 | 3.6 cm^2 | 
CCCCCCCCO [Octanol] | Fungicidal | 100 (≈ 768 µM) | Total inhibition | Total inhibition | Total inhibition | 
C=C(C)[C@@H]1CC=C(CO)CC1 [Perillalcohol] | Fungicidal |  |  |  |  | MIC (P. digitatum [2]): 0.4 mg ml^−1 agar
C=C(C)C1CC=C(C=O)CC1 (stereo not shown) [Perillaldehyde] | Fungicidal | 400 (≈ 2660 µM) | Total inhibition | Total inhibition | Total inhibition | 
C=C(C)C1CC=C(C)CC1 (stereo not shown) [limonene, 1-methyl-4-(1-methylethenyl)cyclohexene] |  |  |  |  |  | elicitation of phytoalexin (scoparone, scopoletin) production (lemons): eliciting the endogenous resistance mechanisms; inhibition of decay (Penicillium digitatum [8]): not adequately active
polyoxyethylene sorbitan monooleate [Tween 80] |  |  |  |  |  | Phytotoxicity (peel blemish index as in Table 1) (fruit): 0

Source: US7465469B2, “Microbiocidal formulation comprising essentials oils or their derivatives” (State of Israel, Ministry of Agriculture & Rural …, priority 2001, dated 2008)
